Measurements from ChEMBL document CHEMBL1134908, “Synthesis of cholesterol-carborane conjugate for targeted drug delivery” (Bioorg Med Chem Lett, 2002).

Tested on: Cancer cell lines
Experiment: The cytotoxicity in liposomal formulation was determined on the SF-763 human glioma cancer cell line
Format: functional, cell-based

**Q.** How did the Viable cells turn out when “Cholesteryl 1,12-dicarba-closo-dodecaborane-1-carboxylate (BCH)” was run?
**A.** 98.5%
